Test [1] has as its target T1, hPPARδ (Homo sapiens, UniProt Q03181).
T1 construct: Full length PPARs plasmid DNA; expressed in transfected cells; host or cells: CV-1 cells
T1 sequence (Q03181 1-441): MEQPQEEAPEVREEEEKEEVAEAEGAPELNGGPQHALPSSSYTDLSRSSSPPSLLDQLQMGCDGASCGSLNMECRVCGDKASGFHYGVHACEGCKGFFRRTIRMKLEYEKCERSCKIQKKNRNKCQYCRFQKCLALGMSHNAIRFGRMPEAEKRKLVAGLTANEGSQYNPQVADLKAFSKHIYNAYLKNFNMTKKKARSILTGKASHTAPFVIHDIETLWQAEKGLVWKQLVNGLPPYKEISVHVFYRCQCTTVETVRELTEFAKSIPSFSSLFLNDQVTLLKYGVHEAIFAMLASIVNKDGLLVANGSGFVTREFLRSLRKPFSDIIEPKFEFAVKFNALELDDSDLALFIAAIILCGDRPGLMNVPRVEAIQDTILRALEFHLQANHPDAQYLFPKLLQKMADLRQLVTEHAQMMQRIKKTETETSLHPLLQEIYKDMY
The following applies: literature, cited from earlier work.

Test [2] deals with T2, hPPARγ (Homo sapiens, UniProt P37231).
T2 construct: Full length PPARs plasmid DNA; expressed in transfected cells; host or cells: CV-1 cells
T2 sequence (P37231 1-505): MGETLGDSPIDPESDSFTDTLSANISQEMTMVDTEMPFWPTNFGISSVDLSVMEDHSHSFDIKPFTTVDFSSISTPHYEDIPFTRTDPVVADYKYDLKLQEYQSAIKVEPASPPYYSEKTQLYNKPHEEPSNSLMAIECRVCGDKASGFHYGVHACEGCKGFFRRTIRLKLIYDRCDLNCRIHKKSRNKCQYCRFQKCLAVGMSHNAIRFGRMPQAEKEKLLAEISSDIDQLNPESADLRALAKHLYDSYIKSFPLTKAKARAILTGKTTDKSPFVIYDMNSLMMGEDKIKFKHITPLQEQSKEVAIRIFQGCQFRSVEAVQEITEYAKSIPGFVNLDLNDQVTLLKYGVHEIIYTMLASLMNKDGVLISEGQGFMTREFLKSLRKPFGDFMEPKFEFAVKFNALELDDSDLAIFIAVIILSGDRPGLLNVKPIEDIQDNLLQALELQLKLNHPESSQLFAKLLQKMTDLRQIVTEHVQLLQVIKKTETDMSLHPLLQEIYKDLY
As to the kind of experiment: Transfection assay (luciferase reporter), PPARγ. It counts as cell-based. The following applies: CV-1 cells, full length PPAR plasmid, 24 hours. On the procedure: (§1) The PPARδ activity of the compound represented by formula (I) of the present invention was confirmed by transfection assay. In addition, the selectivity to PPAR subtypes, PPARα and PPARγ was examined. Cytotoxicity was tested by MTT assay and in vivo activity was investigated by animal experiment.
(§2) CV-1 cells were used in this assay. The cells were inoculated in a 96-well plate containing DMEM supplemented with 10% FBS, DBS (delipidated) and 1% penicillin/streptomycin and cultured in a 37° C., 5% CO2 incubator. The experiment was performed according to the steps of inoculation, transfection, sample treatment and confirmation. Particularly, CV-1 cells were inoculated in a 96 well-plate (5000 cells/well), followed by transfection 24 hours later. Full length PPARs plasmid DNA, reporter DNA confirming PPARs activity owing to its luciferase activity, β-galactosidase DNA providing information on transfection efficiency, and transfection reagent were used for the transfection. Samples were dissolved in dimethylsulfoxide (DMSO), which were treated to the cells via media at different concentrations. After culturing the cells in the incubator for 24 hours, the cells were lysed by using lysis buffer. Luciferase activity and β-galactosidase activity were measured with Luminometer and a microplate reader. The obtained values of luciferase were modified by the values of β-galactosidase. A graph was made with those values and EC50 was calculated.

The target of test [3] is T1, hPPARδ. As to the kind of experiment: Transfection assay (luciferase reporter), PPARδ. It counts as cell-based. The following applies: CV-1 cells, full length PPAR plasmid, 24 hours. As for the experimental part:
as §1, §2
(In general: A reporter such as luciferase makes a cellular process visible.)

In test [4] the target is T3, hPPARα (Homo sapiens, UniProt Q07869).
T3 construct: Full length PPARs plasmid DNA; expressed in transfected cells; host or cells: CV-1 cells
T3 sequence (Q07869 1-468): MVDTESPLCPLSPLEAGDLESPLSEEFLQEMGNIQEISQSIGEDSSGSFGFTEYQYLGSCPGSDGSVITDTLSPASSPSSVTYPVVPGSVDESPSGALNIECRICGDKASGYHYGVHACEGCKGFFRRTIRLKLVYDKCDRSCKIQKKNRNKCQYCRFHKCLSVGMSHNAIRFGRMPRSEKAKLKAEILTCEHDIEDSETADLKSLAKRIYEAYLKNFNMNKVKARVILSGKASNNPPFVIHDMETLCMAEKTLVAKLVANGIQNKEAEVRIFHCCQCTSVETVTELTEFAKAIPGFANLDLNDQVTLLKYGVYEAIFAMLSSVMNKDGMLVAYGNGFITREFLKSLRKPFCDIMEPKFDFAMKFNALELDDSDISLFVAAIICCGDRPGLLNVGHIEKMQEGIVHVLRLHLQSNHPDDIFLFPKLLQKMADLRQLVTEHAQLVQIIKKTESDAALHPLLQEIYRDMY
As to the kind of experiment: Transfection assay (luciferase reporter), PPARα. The test is classed as cell-based. The following applies: CV-1 cells, full length PPAR plasmid, 24 hours. As for the experimental part:
as §1, §2

SMILES strings stand for the structures. Like-named read-outs stand apart in the source and are kept apart here.

Turning to `CCCc1c(OCCCOc2ccc(OCC(=O)O)cc2)ccc(C(C)=O)c1O` [Compound L-165041], the concentration giving a half-maximal response (EC50) in test [1] (human PPARδ) was 530 nM. In addition, the “selectivity to hPPARδ over PPARα or PPARγ” value in test [1] is on record as 10 times.

With `Cc1cc(SC(Cc2ccccc2)c2ccc(-c3ccc(C(F)(F)F)cc3)cc2)ccc1OC(C)(C)C(=O)O` (centres unmarked) [Compound 22], the “EC50 hPPARγ” value in test [2] is recorded as “ia”. The compound further showed a concentration giving a half-maximal response (EC50) in test [3] of 9.3 nM. For the same compound, the “EC50 hPPARα” value in test [4] is reported as “ia”.

For `Cc1cc([Se]Cc2ccc(-c3ccc(C(F)(F)F)cc3)cc2)ccc1OCC(=O)O` [Compound S306], the “EC50 hPPARγ” value in test [2] is on record as “ia”. This compound returned an EC50 in test [3] of 53 nM. The “EC50 hPPARα” value in test [4] was “ia”.

Take `Cc1cc([Se]C(Cc2ccccc2)c2ccc(-c3ccc(C(F)(F)F)cc3)cc2)ccc1OCC(=O)O` (centres unmarked) [Compound S164]: the “EC50 hPPARγ” value in test [2] was “ia”. In test [3], this compound gave an EC50 of 4.5 nM. For the same compound, the “EC50 hPPARα” value in test [4] was “ia”.

As for `CCC(Oc1ccc(SC(Cc2ccccc2)c2ccc(-c3ccc(C(F)(F)F)cc3)cc2)cc1C)C(=O)O` (centres unmarked) [Compound 23], the “EC50 hPPARγ” value in test [2] is “ia”. In test [3], this compound showed an EC50 of 12 nM. The “EC50 hPPARα” value in test [4] is given as “ia”.

Consider `Cc1cc(SC(Cc2c(F)cccc2C(F)(F)F)c2ccc(-c3ccccc3)cc2)ccc1OCC(=O)O` (centres unmarked) [Compound 66], for which, in test [2], the “EC50 hPPARγ” value is “ia”. The same compound displayed an EC50 in test [3] of 33 nM. In test [4], the “EC50 hPPARα” value was “ia”.

As a reminder, the EC50 is the concentration that produces a half-maximal response.

These data come from patent US8519145B2, “Aryl compounds as PPAR ligands and their use” (Seoul National University Industry Foundation, priority 2006, dated 2013).
